Values of other authors in patent publication US6743953B2, “Process for the preparation of xanthophyll crystals” (Kancor Flavours & Extracts Ltd., priority 2002, dated 2004).
Read-outs that look alike come from different tables or passages of the source.

What was measured:
[1] = not given; remark: listed apart in the source

Solubility of Lutein in Solvent (solvent Acetone): 800 Mg/litre | Solubility of Lutein in Solvent (solvent Benzene): 600 Mg/litre | Solubility of Lutein in Solvent (solvent Chloroform): 6000 Mg/litre | Solubility of Lutein in Solvent (solvent Cyclohexanone): 4000 Mg/litre | Solubility of Lutein in Solvent (solvent Dichloromethane): 800 Mg/litre | Solubility of Lutein in Solvent (solvent Ethyl Acetate): 800 Mg/litre | Solubility of Lutein in Solvent (solvent Hexane): 20 Mg/litre | Solubility of Lutein in Solvent (solvent Tetrahydrofuran): 8000 Mg/litre | Solubility of Lutein in Solvent (solvent Toluene): 400 Mg/litre | Stability of Lutein in Solvent ([1]; solvent Acetone): Good | Stability of Lutein in Solvent ([1]; solvent Benzene): Good | Stability of Lutein in Solvent ([1]; solvent Chloroform): Good | Stability of Lutein in Solvent ([1]; solvent Cyclohexanone): Poor | Stability of Lutein in Solvent ([1]; solvent Dichloromethane): Good | Stability of Lutein in Solvent ([1]; solvent Ethyl Acetate): Good | Stability of Lutein in Solvent ([1]; solvent Hexane): Good | Stability of Lutein in Solvent ([1]; solvent Tetrahydrofuran): Good | Stability of Lutein in Solvent ([1]; solvent Toluene): Good
SMILES: CC1=C[C@H](O)CC(C)(C)[C@H]1/C=C/C(C)=C/C=C/C(C)=C/C=C/C=C(C)/C=C/C=C(C)/C=C/C1=C(C)C[C@@H](O)CC1(C)C [Lutein, (3R,3′R,6′R)-β,ε-carotene-3,3′-diol]
